Assays:
[1] = molecular target: T1, Polyamine deacetylase HDAC10 (Homo sapiens, UniProt Q969S8); experiment: Inhibition of human recombinant HDAC10 using Boc-Lys(triflouroacetyI)-AMC substrate incubated for 2 hrs by fluorescence based assay
T1 sequence (Q969S8 whole entry): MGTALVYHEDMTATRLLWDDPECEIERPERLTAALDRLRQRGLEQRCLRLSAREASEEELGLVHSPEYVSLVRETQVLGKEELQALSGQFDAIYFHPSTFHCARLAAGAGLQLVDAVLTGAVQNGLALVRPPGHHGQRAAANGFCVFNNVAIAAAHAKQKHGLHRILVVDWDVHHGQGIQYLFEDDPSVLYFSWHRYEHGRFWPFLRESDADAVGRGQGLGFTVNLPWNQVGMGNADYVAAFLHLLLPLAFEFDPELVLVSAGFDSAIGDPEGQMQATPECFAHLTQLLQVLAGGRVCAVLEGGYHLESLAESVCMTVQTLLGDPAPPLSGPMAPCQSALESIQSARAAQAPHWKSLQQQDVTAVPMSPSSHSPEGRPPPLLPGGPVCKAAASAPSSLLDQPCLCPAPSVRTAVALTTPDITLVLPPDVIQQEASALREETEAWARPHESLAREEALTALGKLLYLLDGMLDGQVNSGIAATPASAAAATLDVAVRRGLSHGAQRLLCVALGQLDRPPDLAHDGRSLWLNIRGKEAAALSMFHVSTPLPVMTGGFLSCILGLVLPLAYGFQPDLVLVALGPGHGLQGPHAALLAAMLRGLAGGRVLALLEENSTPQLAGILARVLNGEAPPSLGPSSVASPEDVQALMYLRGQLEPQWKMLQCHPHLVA

[2] = molecular target: Histone deacetylase 4 (Homo sapiens, UniProt P56524); experiment: Inhibition of human recombinant HDAC4 using Boc-Lys(triflouroacetyI)-AMC substrate incubated for 2 hrs by fluorescence based assay
Sequence of Histone deacetylase 4 (P56524 whole entry): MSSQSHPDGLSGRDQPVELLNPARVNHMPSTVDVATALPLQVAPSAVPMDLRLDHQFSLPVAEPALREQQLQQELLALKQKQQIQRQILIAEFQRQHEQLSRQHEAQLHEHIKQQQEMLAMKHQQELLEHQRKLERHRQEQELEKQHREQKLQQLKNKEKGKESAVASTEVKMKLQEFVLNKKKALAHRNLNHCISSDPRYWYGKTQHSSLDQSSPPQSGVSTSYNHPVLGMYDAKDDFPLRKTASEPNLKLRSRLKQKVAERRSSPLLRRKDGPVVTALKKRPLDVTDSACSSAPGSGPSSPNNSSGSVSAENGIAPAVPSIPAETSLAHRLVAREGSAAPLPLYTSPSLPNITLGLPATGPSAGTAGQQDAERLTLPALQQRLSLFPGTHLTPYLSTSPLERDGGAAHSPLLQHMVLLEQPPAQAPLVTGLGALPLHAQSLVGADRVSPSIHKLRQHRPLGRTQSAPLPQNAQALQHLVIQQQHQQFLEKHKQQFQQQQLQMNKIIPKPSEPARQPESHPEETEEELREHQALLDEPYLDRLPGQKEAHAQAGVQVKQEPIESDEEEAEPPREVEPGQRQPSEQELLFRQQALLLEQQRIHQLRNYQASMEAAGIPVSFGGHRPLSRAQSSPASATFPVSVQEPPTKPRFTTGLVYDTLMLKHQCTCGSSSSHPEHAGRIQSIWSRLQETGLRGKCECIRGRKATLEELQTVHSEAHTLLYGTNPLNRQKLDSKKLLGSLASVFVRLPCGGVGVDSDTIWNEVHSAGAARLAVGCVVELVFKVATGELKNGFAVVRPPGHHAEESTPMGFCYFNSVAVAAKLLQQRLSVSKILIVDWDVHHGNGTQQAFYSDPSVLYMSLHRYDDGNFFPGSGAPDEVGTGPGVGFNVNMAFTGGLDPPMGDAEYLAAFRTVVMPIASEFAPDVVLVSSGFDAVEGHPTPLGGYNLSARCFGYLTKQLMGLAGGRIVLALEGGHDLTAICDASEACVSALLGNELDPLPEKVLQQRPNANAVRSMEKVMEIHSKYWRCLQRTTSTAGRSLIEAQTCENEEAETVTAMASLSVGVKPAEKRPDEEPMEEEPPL

[3] = system: RS4-11; experiment: Antiproliferative activity against human RS4-11 cells assessed as reduction in cell viability measured after 48 hrs by multiplate reader method; conditions: RS4-11, 48 h
[4] = molecular target: T2, Histone deacetylase 11 (Homo sapiens, UniProt Q96DB2); experiment: Inhibition of human recombinant HDAC11 using Boc-Lys(triflouroacetyI)-AMC substrate incubated for 2 hrs by fluorescence based assay
T2 sequence (Q96DB2 whole entry): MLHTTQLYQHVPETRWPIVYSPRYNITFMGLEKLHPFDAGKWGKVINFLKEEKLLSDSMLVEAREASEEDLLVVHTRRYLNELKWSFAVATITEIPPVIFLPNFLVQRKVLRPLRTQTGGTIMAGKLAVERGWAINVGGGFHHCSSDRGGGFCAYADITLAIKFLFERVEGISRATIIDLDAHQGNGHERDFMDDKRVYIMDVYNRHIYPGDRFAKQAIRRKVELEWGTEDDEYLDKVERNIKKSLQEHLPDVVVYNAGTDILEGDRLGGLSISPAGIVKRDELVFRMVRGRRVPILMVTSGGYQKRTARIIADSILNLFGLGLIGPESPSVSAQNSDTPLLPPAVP

[5] = molecular target: Histone deacetylase 5 (Homo sapiens, UniProt Q9UQL6); experiment: Inhibition of human recombinant HDAC5 using Boc-Lys(triflouroacetyI)-AMC substrate incubated for 2 hrs by fluorescence based assay
Sequence of Histone deacetylase 5 (Q9UQL6 whole entry): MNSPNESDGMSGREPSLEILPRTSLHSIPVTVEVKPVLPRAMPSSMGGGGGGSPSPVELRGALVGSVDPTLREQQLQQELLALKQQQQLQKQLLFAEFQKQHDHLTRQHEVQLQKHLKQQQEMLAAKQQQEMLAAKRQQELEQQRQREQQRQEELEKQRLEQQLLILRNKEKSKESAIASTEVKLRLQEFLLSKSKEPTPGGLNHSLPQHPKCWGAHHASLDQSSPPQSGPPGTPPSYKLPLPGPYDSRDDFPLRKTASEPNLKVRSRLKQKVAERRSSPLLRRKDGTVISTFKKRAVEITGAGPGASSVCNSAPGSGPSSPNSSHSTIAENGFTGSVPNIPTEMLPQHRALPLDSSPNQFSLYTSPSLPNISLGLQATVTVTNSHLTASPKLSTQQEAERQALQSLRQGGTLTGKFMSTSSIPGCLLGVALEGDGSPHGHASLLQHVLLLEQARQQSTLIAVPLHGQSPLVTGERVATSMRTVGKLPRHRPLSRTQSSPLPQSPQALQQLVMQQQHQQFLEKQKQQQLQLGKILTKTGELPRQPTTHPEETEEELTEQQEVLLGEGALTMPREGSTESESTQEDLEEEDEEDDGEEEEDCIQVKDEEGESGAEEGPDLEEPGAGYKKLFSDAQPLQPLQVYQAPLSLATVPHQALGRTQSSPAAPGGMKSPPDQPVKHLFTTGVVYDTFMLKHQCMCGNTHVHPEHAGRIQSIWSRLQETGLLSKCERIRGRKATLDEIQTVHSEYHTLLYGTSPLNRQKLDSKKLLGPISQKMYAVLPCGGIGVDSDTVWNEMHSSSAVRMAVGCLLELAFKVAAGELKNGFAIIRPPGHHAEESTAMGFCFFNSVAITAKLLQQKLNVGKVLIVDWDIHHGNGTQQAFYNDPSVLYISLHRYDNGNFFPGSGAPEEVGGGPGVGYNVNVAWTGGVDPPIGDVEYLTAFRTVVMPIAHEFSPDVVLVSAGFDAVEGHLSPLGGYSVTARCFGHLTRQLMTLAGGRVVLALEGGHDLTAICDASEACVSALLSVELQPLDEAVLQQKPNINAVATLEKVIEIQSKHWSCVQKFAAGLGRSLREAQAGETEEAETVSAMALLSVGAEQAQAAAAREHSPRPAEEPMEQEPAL

[6] = molecular target: T3, Protein deacetylase HDAC6 (Homo sapiens, UniProt Q9UBN7); experiment: Inhibition of human recombinant HDAC6 using Boc-Lys(acetyl)-AMC substrate incubated for 2 hrs by fluorescence based assay
T3 sequence (Q9UBN7 whole entry): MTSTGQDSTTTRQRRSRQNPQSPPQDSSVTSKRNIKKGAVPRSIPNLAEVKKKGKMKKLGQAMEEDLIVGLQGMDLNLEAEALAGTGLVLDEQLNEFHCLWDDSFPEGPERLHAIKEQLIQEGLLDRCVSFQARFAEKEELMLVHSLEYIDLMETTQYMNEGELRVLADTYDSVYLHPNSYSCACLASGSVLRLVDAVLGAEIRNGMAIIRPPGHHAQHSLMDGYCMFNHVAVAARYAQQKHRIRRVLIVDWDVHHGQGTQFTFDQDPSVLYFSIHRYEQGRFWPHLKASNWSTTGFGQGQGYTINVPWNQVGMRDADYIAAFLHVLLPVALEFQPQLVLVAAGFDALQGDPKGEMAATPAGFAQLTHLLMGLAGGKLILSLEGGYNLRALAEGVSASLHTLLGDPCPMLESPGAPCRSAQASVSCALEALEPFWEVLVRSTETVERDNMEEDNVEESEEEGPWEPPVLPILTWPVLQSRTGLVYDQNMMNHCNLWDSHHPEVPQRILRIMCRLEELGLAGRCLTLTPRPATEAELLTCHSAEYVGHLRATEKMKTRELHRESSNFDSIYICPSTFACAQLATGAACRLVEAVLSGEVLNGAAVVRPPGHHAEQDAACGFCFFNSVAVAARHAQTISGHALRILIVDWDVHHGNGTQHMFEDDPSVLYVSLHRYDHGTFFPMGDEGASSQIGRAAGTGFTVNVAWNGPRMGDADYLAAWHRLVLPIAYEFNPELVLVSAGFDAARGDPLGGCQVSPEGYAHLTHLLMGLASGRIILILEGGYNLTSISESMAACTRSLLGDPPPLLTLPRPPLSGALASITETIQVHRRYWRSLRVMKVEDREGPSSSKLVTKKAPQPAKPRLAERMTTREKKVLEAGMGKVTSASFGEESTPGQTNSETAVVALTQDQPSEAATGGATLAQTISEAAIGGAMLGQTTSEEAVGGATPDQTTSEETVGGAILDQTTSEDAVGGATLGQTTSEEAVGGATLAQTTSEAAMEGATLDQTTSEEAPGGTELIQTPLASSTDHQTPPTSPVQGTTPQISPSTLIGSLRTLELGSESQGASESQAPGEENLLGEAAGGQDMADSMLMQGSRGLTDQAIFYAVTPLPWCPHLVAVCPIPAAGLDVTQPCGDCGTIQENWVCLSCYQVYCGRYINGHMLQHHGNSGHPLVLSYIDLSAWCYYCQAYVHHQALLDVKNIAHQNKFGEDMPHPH

[7] = system: U-937; experiment: Antiproliferative activity against human U-937 cells assessed as reduction in cell viability after 48 hrs by MTT assay; conditions: U-937, 48 h
[8] = molecular target: T4, Histone deacetylase 8 (Homo sapiens, UniProt Q9BY41); experiment: Inhibition of human recombinant HDAC8 using Boc-Lys(triflouroacetyI)-AMC substrate incubated for 2 hrs by fluorescence based assay
T4 sequence (Q9BY41 whole entry): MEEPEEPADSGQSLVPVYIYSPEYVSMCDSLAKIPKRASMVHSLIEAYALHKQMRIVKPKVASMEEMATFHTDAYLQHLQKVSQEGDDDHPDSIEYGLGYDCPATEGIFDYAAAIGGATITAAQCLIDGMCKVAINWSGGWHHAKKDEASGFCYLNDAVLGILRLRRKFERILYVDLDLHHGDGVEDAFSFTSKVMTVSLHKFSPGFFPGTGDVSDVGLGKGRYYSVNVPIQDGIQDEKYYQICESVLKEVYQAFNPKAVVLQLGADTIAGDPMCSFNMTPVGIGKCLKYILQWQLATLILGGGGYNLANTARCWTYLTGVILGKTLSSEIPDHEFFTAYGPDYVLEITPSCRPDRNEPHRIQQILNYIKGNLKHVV

Row | SMILES | IC50 [1] [µM] | IC50 [2] [µM] | IC50 [3] [µM] | IC50 [4] [µM] | IC50 [5] [µM] | IC50 [6] [µM] | IC50 [7] [µM] | IC50 [8] [µM]
1 | CCCNNC(=O)c1ccc(CNC(=O)/C=C/c2ccccc2)cc1 | > 5 | > 5 | 0.082 | > 5 | > 5 | > 10 | 0.161 | > 5
2 | CCCNNC(=O)c1ccc(CNC(=O)c2cc3ccccc3[nH]2)cc1 | > 5 | > 5 | 0.0315 | > 5 | > 5 | > 10 | 0.0605 | > 5

— ChEMBL document CHEMBL5042504 (J Med Chem, 2022)
